In ChEMBL document CHEMBL5715954, “Silencing c-Myc translation as a therapeutic strategy through targeting PI3Kδ and CK1ε in hematological malignancies” (Blood, 2017):

What was measured:
Design in all cases: scale not given: the % may be the effect or the level left
[1] = target: Serine/threonine-protein kinase 25 (Homo sapiens) (UniProt O00506); assay: Inhibition of human STK25 assessed as enzyme activity at 1 uM using myelin basic protein as substrate preincubated for 20 mins followed by [gamma-33P]-ATP addition and measured after 120 mins by radiometric Hot-SpotSM Kinase assay relative to control
Sequence of Serine/threonine-protein kinase 25 (Homo sapiens) (O00506 whole entry, looked up): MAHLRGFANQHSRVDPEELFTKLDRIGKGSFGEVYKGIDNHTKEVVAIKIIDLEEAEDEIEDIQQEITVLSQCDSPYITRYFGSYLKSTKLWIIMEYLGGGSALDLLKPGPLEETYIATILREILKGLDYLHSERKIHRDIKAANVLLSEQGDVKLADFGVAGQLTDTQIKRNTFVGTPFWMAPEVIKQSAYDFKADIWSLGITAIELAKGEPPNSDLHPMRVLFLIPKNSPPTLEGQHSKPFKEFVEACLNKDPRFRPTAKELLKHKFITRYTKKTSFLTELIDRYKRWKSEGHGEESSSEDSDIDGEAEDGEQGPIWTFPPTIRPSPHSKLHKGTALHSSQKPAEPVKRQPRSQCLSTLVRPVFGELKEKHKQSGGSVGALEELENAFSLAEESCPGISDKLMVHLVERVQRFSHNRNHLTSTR

[2] = target: Tyrosine-protein kinase ABL2 (Homo sapiens) (UniProt P42684); assay: Inhibition of human ABL2 assessed as enzyme activity at 1 uM using EAIYAAPFAKKK as substrate preincubated for 20 mins followed by [gamma-33P]-ATP addition and measured after 120 mins by radiometric Hot-SpotSM Kinase assay relative to control
Sequence of Tyrosine-protein kinase ABL2 (Homo sapiens) (P42684 whole entry): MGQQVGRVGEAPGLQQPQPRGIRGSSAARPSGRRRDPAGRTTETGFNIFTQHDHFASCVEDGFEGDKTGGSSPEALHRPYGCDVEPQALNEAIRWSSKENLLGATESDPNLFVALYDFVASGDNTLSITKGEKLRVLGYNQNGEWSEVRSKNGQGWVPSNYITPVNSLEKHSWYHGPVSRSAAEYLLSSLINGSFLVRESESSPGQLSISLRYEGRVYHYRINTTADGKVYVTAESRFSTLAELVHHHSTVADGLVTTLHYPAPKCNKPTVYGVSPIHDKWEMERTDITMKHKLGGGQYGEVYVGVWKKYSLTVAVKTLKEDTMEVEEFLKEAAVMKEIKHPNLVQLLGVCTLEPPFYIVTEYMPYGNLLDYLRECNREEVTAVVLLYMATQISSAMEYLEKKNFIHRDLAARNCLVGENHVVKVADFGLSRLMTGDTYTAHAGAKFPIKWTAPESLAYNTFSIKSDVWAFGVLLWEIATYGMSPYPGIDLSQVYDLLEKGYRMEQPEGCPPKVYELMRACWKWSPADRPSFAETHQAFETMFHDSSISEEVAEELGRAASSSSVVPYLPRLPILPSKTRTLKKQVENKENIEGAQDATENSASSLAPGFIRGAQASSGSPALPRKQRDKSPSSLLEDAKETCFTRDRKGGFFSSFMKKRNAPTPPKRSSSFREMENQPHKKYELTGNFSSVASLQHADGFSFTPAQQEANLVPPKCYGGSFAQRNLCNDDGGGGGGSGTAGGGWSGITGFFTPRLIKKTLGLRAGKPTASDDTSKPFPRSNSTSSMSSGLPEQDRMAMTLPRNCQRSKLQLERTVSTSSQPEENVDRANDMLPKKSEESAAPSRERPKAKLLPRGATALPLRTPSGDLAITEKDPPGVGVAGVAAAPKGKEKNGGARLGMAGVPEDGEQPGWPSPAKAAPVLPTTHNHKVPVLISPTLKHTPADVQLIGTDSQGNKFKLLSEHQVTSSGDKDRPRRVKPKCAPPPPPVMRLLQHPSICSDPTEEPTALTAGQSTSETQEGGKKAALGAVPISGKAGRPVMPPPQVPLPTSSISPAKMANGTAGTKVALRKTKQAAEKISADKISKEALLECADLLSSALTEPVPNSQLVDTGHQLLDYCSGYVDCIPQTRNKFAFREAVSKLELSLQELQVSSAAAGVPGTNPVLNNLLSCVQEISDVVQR

[3] = target: T1, Activin receptor type-1B (Homo sapiens) (UniProt P36896); assay: Inhibition of human ALK4 assessed as enzyme activity at 1 uM using casein as substrate preincubated for 20 mins followed by [gamma-33P]-ATP addition and measured after 120 mins by radiometric Hot-SpotSM Kinase assay relative to control
T1 sequence (whole entry): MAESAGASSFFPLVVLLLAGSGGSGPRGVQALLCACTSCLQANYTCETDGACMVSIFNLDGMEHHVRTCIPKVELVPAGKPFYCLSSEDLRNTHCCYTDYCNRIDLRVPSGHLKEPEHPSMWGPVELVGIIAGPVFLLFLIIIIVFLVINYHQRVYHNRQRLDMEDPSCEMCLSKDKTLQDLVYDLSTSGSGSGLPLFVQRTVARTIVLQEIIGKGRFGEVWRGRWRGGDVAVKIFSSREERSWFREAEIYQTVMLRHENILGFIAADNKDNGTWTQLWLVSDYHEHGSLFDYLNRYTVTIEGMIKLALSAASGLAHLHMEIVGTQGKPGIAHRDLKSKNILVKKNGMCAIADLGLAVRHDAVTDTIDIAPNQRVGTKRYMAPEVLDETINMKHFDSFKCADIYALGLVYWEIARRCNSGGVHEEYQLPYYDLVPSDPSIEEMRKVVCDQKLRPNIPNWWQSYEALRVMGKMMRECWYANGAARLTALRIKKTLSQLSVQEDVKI

[4] = target: Ribosomal protein S6 kinase beta-2 (Homo sapiens) (UniProt Q9UBS0); assay: Inhibition of human p70S6Kb assessed as enzyme activity at 1 uM using KKRNRTLTK as substrate preincubated for 20 mins followed by [gamma-33P]-ATP addition and measured after 120 mins by radiometric Hot-SpotSM Kinase assay relative to control
Sequence of Ribosomal protein S6 kinase beta-2 (Homo sapiens) (Q9UBS0 whole entry): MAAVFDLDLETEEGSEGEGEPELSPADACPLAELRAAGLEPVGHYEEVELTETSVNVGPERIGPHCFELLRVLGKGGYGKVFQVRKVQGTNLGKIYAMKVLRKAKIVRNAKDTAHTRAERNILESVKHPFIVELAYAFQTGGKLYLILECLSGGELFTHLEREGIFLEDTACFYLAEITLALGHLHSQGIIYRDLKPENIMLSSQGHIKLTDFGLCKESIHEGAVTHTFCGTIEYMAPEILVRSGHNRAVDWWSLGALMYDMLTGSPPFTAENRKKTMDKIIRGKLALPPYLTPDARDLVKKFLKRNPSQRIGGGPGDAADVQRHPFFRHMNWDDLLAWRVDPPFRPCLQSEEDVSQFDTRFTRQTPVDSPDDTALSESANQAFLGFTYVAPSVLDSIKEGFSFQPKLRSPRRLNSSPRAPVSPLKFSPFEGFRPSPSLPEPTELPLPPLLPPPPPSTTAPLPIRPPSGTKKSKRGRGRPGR

[5] = target: T2, Ephrin type-B receptor 1 (Homo sapiens) (UniProt P54762); assay: Inhibition of human EPHB1 assessed as enzyme activity at 1 uM using poly[Glu:Tyr] (4:1) as substrate preincubated for 20 mins followed by [gamma-33P]-ATP addition and measured after 120 mins by radiometric Hot-SpotSM Kinase assay relative to control
T2 sequence (whole entry): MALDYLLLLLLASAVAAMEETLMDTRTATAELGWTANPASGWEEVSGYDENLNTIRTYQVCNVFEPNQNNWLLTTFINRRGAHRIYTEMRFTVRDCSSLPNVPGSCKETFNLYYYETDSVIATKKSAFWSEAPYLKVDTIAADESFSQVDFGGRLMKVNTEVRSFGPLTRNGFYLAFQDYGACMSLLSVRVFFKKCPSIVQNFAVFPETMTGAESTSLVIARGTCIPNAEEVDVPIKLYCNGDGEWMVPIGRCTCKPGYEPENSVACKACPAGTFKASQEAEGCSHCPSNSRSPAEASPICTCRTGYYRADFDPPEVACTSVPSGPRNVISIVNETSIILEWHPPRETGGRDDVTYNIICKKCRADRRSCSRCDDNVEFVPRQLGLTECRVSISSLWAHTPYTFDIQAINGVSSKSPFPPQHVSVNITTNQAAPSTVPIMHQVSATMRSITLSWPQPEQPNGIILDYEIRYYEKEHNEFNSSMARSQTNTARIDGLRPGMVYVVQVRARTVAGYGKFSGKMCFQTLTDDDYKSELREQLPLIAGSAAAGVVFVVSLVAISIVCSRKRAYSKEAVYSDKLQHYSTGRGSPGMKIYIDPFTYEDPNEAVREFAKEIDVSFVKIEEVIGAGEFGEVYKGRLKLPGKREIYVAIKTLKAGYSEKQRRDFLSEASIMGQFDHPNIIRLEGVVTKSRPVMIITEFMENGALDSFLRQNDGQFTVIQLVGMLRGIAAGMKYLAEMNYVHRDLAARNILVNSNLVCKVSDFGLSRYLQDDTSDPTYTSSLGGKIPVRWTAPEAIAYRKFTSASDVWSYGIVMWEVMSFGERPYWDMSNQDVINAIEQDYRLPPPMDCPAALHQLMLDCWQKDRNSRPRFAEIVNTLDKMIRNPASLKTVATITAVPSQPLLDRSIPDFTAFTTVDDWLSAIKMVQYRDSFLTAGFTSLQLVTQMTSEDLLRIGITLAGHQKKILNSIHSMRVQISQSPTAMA

[6] = target: T3, Serine/threonine-protein kinase D3 (Homo sapiens) (UniProt O94806); assay: Inhibition of human PKCnu assessed as enzyme activity at 1 uM using KKLNRTLSVA as substrate preincubated for 20 mins followed by [gamma-33P]-ATP addition and measured after 120 mins by radiometric Hot-SpotSM Kinase assay relative to control
T3 sequence (whole entry): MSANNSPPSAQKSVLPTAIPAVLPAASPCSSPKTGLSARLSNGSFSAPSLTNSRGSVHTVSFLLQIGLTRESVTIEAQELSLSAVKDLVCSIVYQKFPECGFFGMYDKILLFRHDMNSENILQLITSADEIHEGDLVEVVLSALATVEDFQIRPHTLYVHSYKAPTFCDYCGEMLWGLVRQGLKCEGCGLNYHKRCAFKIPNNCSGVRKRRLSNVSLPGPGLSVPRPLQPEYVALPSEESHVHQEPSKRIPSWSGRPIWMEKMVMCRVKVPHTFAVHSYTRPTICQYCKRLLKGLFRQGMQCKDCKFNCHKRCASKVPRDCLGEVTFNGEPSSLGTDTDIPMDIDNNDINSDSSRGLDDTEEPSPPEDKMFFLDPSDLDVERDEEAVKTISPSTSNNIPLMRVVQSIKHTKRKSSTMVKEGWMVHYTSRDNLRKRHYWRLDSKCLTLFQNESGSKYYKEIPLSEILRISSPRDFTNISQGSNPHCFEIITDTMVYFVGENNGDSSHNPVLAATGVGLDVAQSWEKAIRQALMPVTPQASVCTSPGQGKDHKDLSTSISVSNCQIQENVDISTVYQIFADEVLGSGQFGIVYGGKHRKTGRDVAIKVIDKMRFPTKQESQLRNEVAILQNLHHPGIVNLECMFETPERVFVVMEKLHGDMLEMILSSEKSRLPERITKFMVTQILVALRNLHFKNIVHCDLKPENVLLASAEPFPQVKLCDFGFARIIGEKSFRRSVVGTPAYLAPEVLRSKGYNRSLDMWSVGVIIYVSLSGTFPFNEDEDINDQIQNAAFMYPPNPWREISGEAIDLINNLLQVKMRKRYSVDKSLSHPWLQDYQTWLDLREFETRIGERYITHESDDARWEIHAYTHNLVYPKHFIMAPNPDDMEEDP

C[C@H](Nc1ncnc2nc[nH]c12)c1cc2cccc(Cl)c2c(=O)n1-c1ccccc1
Activity [1]: 97%
Activity [2]: 91.7%
Activity [3]: 101%
Activity [4]: 96.8%
Activity [5]: 93.4%
Activity [6]: 94.8%

CC[C@H](Nc1ncnc2[nH]cnc12)c1nc2cccc(F)c2c(=O)n1-c1ccccc1
Activity [1]: 102%
Activity [2]: 89.1%
Activity [3]: 101%
Activity [4]: 104%
Activity [5]: 90.6%
Activity [6]: 85.5%

CC(C)Oc1ccc(-c2nn([C@@H](C)c3oc4ccc(F)cc4c(=O)c3-c3cccc(F)c3)c3ncnc(N)c23)cc1F [UMBRALISIB]
Activity [1]: 103%
Activity [2]: 90.6%
Activity [3]: 106%
Activity [4]: 105%
Activity [5]: 95.5%
Activity [6]: 98.4%
